In patent publication US20250064064A1, “METHODS FOR DESIGNING AND […] VAPOR PHASE HYDROGEN PEROXIDE DECON[…]” (Amgen Inc., priority 2021, published 2025):
Where two headings read alike, the source gives them in different places.

System: viable spores of Geobacillus stearothermophilus
Conditions: for growth results for biological indicators: dose 8 mL, seven BIs, seven-day incubation, no growth = 6-Log CFU reduction
Procedure: In general, for each of the experiments, a respective amount of gas is circulated in a chamber interior containing Bls (in these experiments, seven Bls) for a respective amount of time. Then, after removing the gas from the chamber interior, the Bls are tested to determine whether the desired CFU reduction was achieved.
One example method of determining whether the desired CFU reduction was achieved is by removing the Bls from the chamber interior after circulating a particular amount of gas for a particular amount of time, and incubating the Bls in a growth-promoting medium for seven days.
In this example, the seven Bls of FIG. 3 may be in one or more locations in the chamber interior (e.g., with at least some in locations that are relatively difficult to decontaminate in the chamber interior). The Bls may be inoculated with viable spores of Geobacillus stearothermophilus, for example, or another suitable type of thermophile bacteria. The D-value of the Bls may be provided by the manufacturer of the Bls and may be, for example, 0.25 minutes, 0.5 minutes, 1 minutes, 1.5 minutes, 2 minutes, 2.5 minutes, or any other suitable D-value.

How did the “growth-no growth behavior with respect to time” value (10 mL amount of gas compared with 8 mL amount of gas) turn out when `OO` [gas, hydrogen peroxide] was run?
Its value is “identical”.

And the “growth results for biological indicators” value (gas circulated for 100 seconds)?
Its value is “all but one BI (BI #4) achieving no growth”.

And the “growth results for biological indicators” value (gas circulated for 300 seconds)?
The value was “no growth for all seven Bls”.

What about the “growth results for biological indicators” value (gas circulated for 500 seconds) of the same compound?
The value was “no growth for all seven Bls”.
